Several values for one entry are separate records, joined by “and”; a condition that tells them apart may be missing. Identical values can stand only once.
Assays:
[1] = tested on: mitochondrial membrane permeability transition pore (mPTP) in SH-SY5Y cells; test: Mitochondrial membrane permeability transition pore (mPTP) measurement, TBHP-induced opening; assay type: cell-based, human; conditions: 1 mM TBHP
Protocol: The blockage of mPTP by compounds was determined with the MitoProbe Transition Assay Kit following manufacturer's instructions. Briefly, SH-SY5Y human neuroblastoma cells were re-suspended in pre-warmed PBS/Ca^+2 buffer at a final concentration of 1×10^6 cells/mL. Cells were loaded with 0.01 μM Calcein-AM and incubated at 37° C. for 15 min. Then, 0.4 mM CoCl2 and compounds at selected concentrations were added and incubated for 15 min at 37° C. […] After this incubation, cells were centrifuged and re-suspended in 100 μL of PBS. Just before analyzing, 1 mM tert-butyl hydroperoxide (TBHP) was added to the samples to induce pore opening. Fluorescence intensity was measured at 488 nm excitation and 517 nm emission wavelengths by flow cytometry using the ImageStreamMKII (Amnis Corporation, Merck-Millipore) and […] software. The fluorescence of 10,000 events was analyzed with IDEASR Application vs 6.0 (Amnis Corporation, Merck-Millipore). Experiments were carried out four times.

CypA = molecular target: T1, CypA (Homo sapiens, UniProt P62937); test: CypA PPIase activity inhibition; assay type: biochemical; conditions: PPIase IC50 CypA vs CypD
T1 construct: Active human CypA full-length protein was from Abcam; purchased Abcam
T1 sequence (P62937 whole entry): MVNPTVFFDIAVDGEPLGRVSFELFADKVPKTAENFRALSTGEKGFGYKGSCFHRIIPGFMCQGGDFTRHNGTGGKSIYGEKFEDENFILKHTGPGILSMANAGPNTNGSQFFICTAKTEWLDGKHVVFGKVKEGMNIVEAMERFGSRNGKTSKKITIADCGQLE

SH-SY5Y cells = test: Intracellular ROS levels (carboxy-H2DCFDA) after H2O2; assay type: cell-based, human; conditions: 150 μM H2O2 co-treatment 6 h
Protocol: Intracellular levels of reactive oxygen species (ROS) were determined with carboxy-H2DCFDA (5-(and-6)-carboxy-2′,7′-dichlorodihydrofluorescein diacetate). This dye diffuses through the cellular membrane and is converted by cellular esterases to carboxy-H2DCFH (non-fluorescent). When carboxy-H2DCFH is oxidized by ROS, it becomes fluorescent (Halliwell, B. and Whiteman, M. Br. J. Pharmacol., 2004, 142, 231-255). Cells were seeded at a density of 2.5×10^5 cells/mL in 96-well plates and allowed to attach for 24 h. Following treatment with compounds at various concentrations (1 μM→1 nM) and 150 μM H2O2 for 6 h, SH-SY5Y cells were washed twice with serum-free culture medium. Then, carboxy-H2DCFDA 20 μM dissolved in serum-free culture medium was added to each well and the cells were incubated for 1 h at 37° C. After this incubation, the medium with the fluorescent dye was replaced with PBS and the plate was incubated for 30 min at 37° C. Fluorescence was read at 527 nm, with an excitation wavelength of 495 nm. All experiments were performed four times.

[2] = molecular target: T2, active human CypA protein (Homo sapiens, UniProt P62937); test: Binding to immobilized CypA by surface plasmon resonance (SPR); conditions: for immunosuppressive activity (SAR profile, FIG. 2): in words, CypA binding / IL-2 inhibition
T2 construct: Active human CypA full-length protein was from Abcam; purchased Abcam
T2 sequence (P62937 whole entry): as above
Protocol: Sensor surface activation and ligand immobilization were performed by using HBS-EP as running buffer at a flow rate of 5 μL/min and 25° C. CM5 sensor chips were used as surface where Cyp A or D was immobilized as ligand. The CM5 chip is a glass slide coated with a thin layer of gold with a matrix of carboxymethylated dextran covalently attached. The CM5 chip was activated using an amine coupling kit. […] After activation, the ligand, 100 μg/mL of active human CypA protein dissolved in sodium acetate 10 mM at pH 4.5 was added to be immobilized over a CM5 sensor chip. Finally ethanolamine-HCl was injected to deactivate the remaining active esters and to avoid non-specific binding. […] Once analytes were tested and interaction was observed, individual binding curves were analyzed by determining the kinetic constants of analytes-CypA binding, namely, the observed rate constant (Kobs), the association rate constant (Kass), the dissociation rate constant (Kdiss), and the kinetic equilibrium dissociation constant (KD). At equilibrium, by definition, […]. The pseudo-first order association rate constants Kobs (s^-1) were determined for each compound concentration by using the 1:1 Langmuir association model of BiaEvaluation software (BiaCore, Uppsala, Sweden). Then a representation of Kobs against the corresponding concentration of each compound was done. […] From the equation of these representations, Kass, M^-1 s^-1, gradient of the plot, and […]^-1, intercept of the plot was obtained. Within these two values, the kinetic equilibrium dissociation constant KD for each analyte-CypA binding was obtained. The duration of the sample injection was 2 min at 10 μL/min flow rate. Next, dissociation of bound molecules in HBS-EP buffer flow was studied. The bound drugs were removed from the chip surface before the next injection by adding 1 M Glycine-HCl at pH 2.5 for 1 min. The association phase was used to quantify the compound-CypA or D interactions. All experiments were performed four times.

[3] = Viability of human T lymphocytes (MTT assay, 48 h); assay type: cell-based; conditions: human; 0.1 μM, 48 hours; read-out: decrease in cell viability
Description: (§1) The MTT (3-[4,5-dimethylthiazol-2-yl]-2,5-diphenyltetrazoliumbromide) assay was used to determine the cytotoxicity of gracilin derivatives in T lymphocytes (Burton, J. D. Methods Mol. Med., 2005, 110, 69-78) and SH-SY5Y cells and the protective effect of these compounds against H2O2 insult in neuroblastoma cells as previously described (Leiros, M., Alonso, E., Sanchez, J. A., Rateb, M. E., Ebel, R., Houssen, W. E., Jaspars, M., Alfonso, A. and Botana, L. M. ACS Chem. Neurosci., 2014, S, 71-80). Human T lymphocytes were cultured in 24 well plates at the concentration of 2.5×10^6 cells/mL and exposed to different compound concentrations (0.01, 0.1, 1 and 10 μM) added to the culture medium. Human T cells were maintained in the presence of the pure compound at 37° C. in humidified 5% CO2/95% air atmosphere for 48 h.
(§2) Saponin was used as cellular death control and its absorbance was subtracted from the other data. After the incubation period with compounds, assay was performed. First cells were centrifuged (1500 rpm, 5 min, 4° C.). The pellets were resuspended in saline solution with MTT (250 μg/mL) and then incubated at 37° C. during 30 min. After washing off excess MTT twice with saline solution, cells were disaggregated with H2O and sonicated for 1 min and the absorbance of the colored formazan salt was measured at 595 nm in a spectrophotometer plate reader. All experiments were performed three times.

human T lymphocytes = test: Viability of human T lymphocytes (MTT assay, 48 h); assay type: cell-based; conditions: in words
Description: as §1, §2

Row | SMILES | mPTP opening [1] | selectivity for CypA (CypA) [fold] | ROS levels (SH-SY5Y cells) | immunosuppressive activity (SAR profile, FIG. 2) [2] | cytotoxicity at 48 h, 0.1 μM [3] [%] | impact on T-cell viability (human T lymphocytes) | Kd ([2]; SPR, immobilized CypA)
1 | CC(=O)O[C@H]1O[C@@H](OC(C)=O)[C@@H]2CC[C@](O)(C3(C)CCCC(C)(C)C3)C[C@H]12 (stereo partly drawn) [Compound 22, (1S,3R,3aS,5R,7aR)-5-hydroxy-5-(1,3,3-trimethylcyclohexyl)octahydroisobenzo-furan-1,3-diyl diacetate] | prevent TBHP-induced opening | 4 | diminishing ROS at two or three concentrations | inactive |  |  | 
2 | CC(=O)O[C@@H]1OC[C@H]2C=C(C3(C)CCCCC3)CC[C@@H]12 [Compound 27a, (1S,3aS,7aR)-5-(1-methylcyclohexyl)-1,3,3a,6,7,7a-hexahydroisobenzofuran-1-yl acetate] | prevent TBHP-induced opening |  | diminishing ROS at two or three concentrations | inactive |  |  | 
3 | CC(=O)O[C@H]1OC[C@@H]2C=C([C@@]3(C)CCCC(C)(C)C3)CC[C@H]12 [Compound 29a, (1R,3aR,7aS)-5-(1,3,3-trimethylcyclohexyl)-1,3,3a,6,7,7a-hexahydroisobenzofuran-1-yl acetate] | prevent TBHP-induced opening |  |  |  | 15 to 25 | relatively non-toxic | ~3 µM and 2.8 to 6.8 µM

Source: patent US11066379B2 (THE TEXAS A&M UNIVERSITY SYSTEM, priority 2018, dated 2021)
